Test results published in the supplement of paper PMC10627819.

How the values were obtained:
B. subtilis 168 [1] = assay: fitness (endpoint OD595 vs no drug) (fraction); higher = more growth
Outline: (§1)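 Growth medium was TSB, LB Lennox or CY, and plates were kept at 37 °C. Inoculation was at OD595 0.01 in 384-well plates, at 30 µl per well or 55 µl for S. pneumoniae. OD595 was monitored every 30 min for 14 h and background-subtracted using the first reading. Fitness is the optical density on entering stationary phase divided by the robust mean of no-drug controls, with values capped at 1.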

S. aureus DSM 20231 [2] = assay: as above
Outline: as §1

S. aureus Newman = assay: Bliss interaction score (quartile over a dose matrix) (fitness difference); higher = more antagonism (negative = synergy)
Outline: (§2)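 At entry into stationary phase, OD595 was recorded and divided by the robust mean of the no-drug wells on that plate, with any value above 1 set to 1. This gives the fitness measure used throughout. Single-drug fitness was inferred from combination data, and the Bliss score, observed minus product-expected fitness, is shown as quartiles across technical, biological and donor/recipient replicates.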

B. subtilis 168 [3] = assay: as above
Outline: as §2

S. pneumoniae D39V = assay: as above
Outline: as §2

S. aureus DSM 20231 [4] = assay: as above
Outline: as §2
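Wherever Bliss interaction score (quartile over a dose matrix) is given: first quartile when negative (synergy) and third quartile when positive (antagonism).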

CCC[C@@H]1C[C@@H](C(=O)N[C@@H]([C@H]2O[C@H](SC)[C@H](O)[C@@H](O)[C@H]2O)[C@H](C)Cl)N(C)C1 [Clindamycin] + COc1cc(Cc2cnc(N)nc2N)cc(OC)c1OC [Trimethoprim]
fitness, B. subtilis 168 [1], one replicate
Conditions | partner 0.1 µg/mL | partner 0.125 µg/mL | partner 0.2 µg/mL | partner 0.25 µg/mL | partner 0.4 µg/mL | partner 0.5 µg/mL | partner 1 µg/mL | partner 2 µg/mL
first compound 0.0039 µg/mL | – | 0.663 | – | 0.563 | – | 0.518 | – | –
first compound 0.0078 µg/mL | – | 0.603 | – | 0.511 | – | 0.481 | – | –
first compound 0.0156 µg/mL | – | 0.596 | – | 0.54 | – | 0.531 | – | –
first compound 0.0625 µg/mL | 0.461 | 0.38 | 0.271 | – | 0.174 | – | 0.041 | 0.0649
first compound 0.125 µg/mL | 0.256 | 0.179 | 0.172 | – | 0.0828 | – | 0.031 | 0.0548
first compound 0.25 µg/mL | 0.126 | 0.0411 | 0.0757 | – | 0.0475 | – | 0.0278 | 0.0626

fitness
Conditions | first compound 0.0312 µg/mL | first compound 0.0625 µg/mL | first compound 0.125 µg/mL | first compound 0.25 µg/mL
B. subtilis 168 [1], partner 0.25 µg/mL | – | 0.352 | 0.233 | 0.083
B. subtilis 168 [1], partner 0.5 µg/mL | – | 0.222 | 0.101 | 0.0589
S. aureus DSM 20231 [2], partner 0.125 µg/mL | 0.268 | 0.0676 | 0.0245 | –
S. aureus DSM 20231 [2], partner 0.25 µg/mL | – | 0.125 | 0.0812 | –
S. aureus DSM 20231 [2], partner 0.5 µg/mL | – | 0.0734 | 0.0599 | –
S. aureus DSM 20231 [2], partner 1 µg/mL | 0.124 | 0.0694 | 0.0452 | –

Conditions | Bliss interaction score
B. subtilis 168 [3] | -0.144
S. aureus DSM 20231 [4] | 0.0511
S. aureus Newman | 0.196
S. pneumoniae D39V | 0.0411

O=C(O[C@@H]1Cc2c(O)cc(O)cc2O[C@@H]1c1cc(O)c(O)c(O)c1)c1cc(O)c(O)c(O)c1 [EGCG] + COc1cc(Cc2cnc(N)nc2N)cc(OC)c1OC [Trimethoprim]
fitness, B. subtilis 168 [1], one replicate
Conditions | partner 0.1 µg/mL | partner 0.2 µg/mL | partner 0.4 µg/mL | partner 1 µg/mL | partner 2 µg/mL
first compound 6.25 µg/mL | 0.856 | 0.624 | 0.464 | 0.346 | 0.485
first compound 12.5 µg/mL | 0.438 | 0.252 | 0.235 | 0.127 | 0.13
first compound 25 µg/mL | 0.199 | 0.102 | 0.0997 | 0.0869 | 0.0586

fitness
Conditions | partner 0.125 µg/mL | partner 0.25 µg/mL | partner 0.5 µg/mL | partner 1 µg/mL
B. subtilis 168 [1], first compound 6.25 µg/mL | 0.611 | – | 0.508 | –
B. subtilis 168 [1], first compound 12.5 µg/mL | 0.363 | 0.426 | 0.41 | –
B. subtilis 168 [1], first compound 25 µg/mL | 0.232 | – | 0.244 | –
S. aureus DSM 20231 [2], first compound 12.5 µg/mL | 0.621 | 0.544 | 0.338 | 0.0444
S. aureus DSM 20231 [2], first compound 25 µg/mL | 0.675 | 0.541 | 0.3 | 0.0338
S. aureus DSM 20231 [2], first compound 50 µg/mL | 0.71 | 0.588 | 0.292 | 0.0285

Conditions | Bliss interaction score
B. subtilis 168 [3] | -0.0682
S. aureus DSM 20231 [4] | 0.0729
S. aureus Newman | 0.115
S. pneumoniae D39V | 0.12
